Assay results: PMC8242589, “Cardiac Safety of Kinase Inhibitors – Improving Understanding and Prediction of Liabilities in Drug Discovery Using Human Stem Cell-Derived Models” (Frontiers in Cardiovascular Medicine, 2021)
“Also recorded” adds a separate entry of the source.

Legend:
[1] = system: hSC-CMs (Cor.4U Cardiomyocytes); assay: ATP assay (CellTiter-Glo Luminescent Cell Viability Assay); assay type: cell-based, human; conditions: for viability at 0.3 µM / viability at 3 µM / viability at 30 µM / viability at 300 µM: Homo sapiens, Cardiomyocyte; for viability at 0.3 µM / viability at 3 µM / viability at 30 µM / viability at 300 µM / ATP: normalized to time-matched DMSO control
Experimental: Cor.4U® Cardiomyocytes (Ncardia, Netherlands) were cultured in 96-well plates at density of 25,000 – 30,000 cells per well. Cells were maintained at 5% CO2 and 37 °C for 4 days prior to experiments. The cell culture medium (Cor4U® Complete Culture Medium, cat# Ax-M-HC250E, Axiogenesis AG, Cologne, Germany) was changed every 24 h and was replaced by serum-free BMCC medium (cat# Ax-M-BMCC259, Axiogenesis AG, Cologne, Germany) 12 h prior to drug addition.
The CellTiter-Glo Luminescent Cell Viability Assay (cat# G7572, Promega, USA) was performed for quantification of the cellular ATP concentration according to manufacturer's instructions. Plates were shaken for 2 min in the dark, incubated at ambient temperature for 10 min before measuring luminescence (Integration time 0.1 seconds per well) with Luminescence Counter (Synergy H1, BioTek Instruments, Inc., Winooski, Vermont). The measured ATP concentration values were normalized to the time-matched DMSO controls. Data are representative of at least three replicates per concentration.

[2] = system: hSC-CMs (Cor.4U Cardiomyocytes); assay: Apoptosis assay (CellEvent Caspase-3/7 Green, IncuCyte ZOOM kinetics over 24 h); assay type: cell-based, human; design: key to Caspase / Caspase MEAN: % of time-matched vehicle control (green object area)
Experimental: Cor.4U® Cardiomyocytes ([…], Netherlands) were cultured in 96-well plates at density of 25,000 - 30,000 cells per well. Cells were maintained at 5% CO2 and 37 °C for 4 days prior to experiments. […] The plates were incubated 2 h before compound treatment in the IncuCyte ZOOM (ESSEN BioScience, Ann Arbor, Michigan) to set a baseline before the 24 h compound treatment. […] Imaging was done using 10x microscope objective of the IncuCyteZOOM with four images per well-taken every 2 h in both phase-contrast and green fluorescence. The fluorescent nuclear signal of the apoptotic cells was separated from background with the integrated object counting algorithm, adjusted to cardiomyocytes, and the calculated total green object area per well (μm^2/well) plotted against time. Data were normalized to those of the time-matched vehicle control. Data were representative of at least three replicates per concentration.

[3] = system: ROCK1; conditions: ref [36] (RKI-1447), [37], [38] (Fasudil), [39]–[43] (Y-27632), [44], [45] (GSK-429286); read-out: Target IC50 ROCK1; cited from earlier work
[4] = system: hSC-CMs (Cor.4U Cardiomyocytes); assay: CardioExcyte 96 impedance and EFP recording (beating rate, base impedance); assay type: cell-based, human; conditions: for activity at 0.3 µM / activity at 3 µM / activity at 30 µM / activity at 300 µM: Homo sapiens, Cardiomyocyte; for activity at 0.3 µM / activity at 3 µM / activity at 30 µM / activity at 300 µM / BR / Base Imp: vs baseline before drug (taken as 100%); for Effect on base impedance, in words: hSC-CMs, 2 and 24 h
Experimental: Cor.4U® Cardiomyocytes (Ncardia, Netherlands) were cultured in 96-well plates at density of 25,000 – 30,000 cells per well. Cells were maintained at 5% CO2 and 37 °C for 4 days prior to experiments.
Functional monitoring of cardiomyocytes was done using CardioExcyte® 96 (Nanion technologies GmbH, Germany). Extracellular field potential (EFP) and impedance signals were recorded from hSC-CMs that formed monolayers in the wells of the NSP-96 plate. Beating Rate (BR, per minute) was calculated as the reciprocal of the inter-spike interval (ISI) in EFP signal. Impedance signals from spontaneously beating hSC-CMs were recorded with a sampling rate of 1 ms (1 kHz), and EFP data were collected at 0.1ms (10 kHz). Data acquisition was controlled by CardioExcyte® 96 Control software as previously described ([22]). The functional parameters recorded in each concentration of test items were compared to the base line values before drug addition (taken as 100%) to define fractional change.

[5] = Homo sapiens, Cardiomyocyte, 2h, normalized to time-matched vehicle control
[6] = Homo sapiens, Cardiomyocyte, 24h, normalized to time-matched vehicle control

Compound: O=S(=O)(c1cccc2cnccc12)N1CCCNCC1 [Fasudil]
- viability at 0.3 µM ([1]; 2h): 87%
- viability at 0.3 µM ([1]; 24h): 96%
- viability at 3 µM ([1]; 2h): 91%
- viability at 3 µM ([1]; 24h): 102%
- viability at 30 µM ([1]; 2h): 97%
- viability at 30 µM ([1]; 24h): 100%
- viability at 300 µM ([1]; 2h): 101%
- viability at 300 µM ([1]; 24h): 91%
- Reduction in the ATP content ([1]; top concentration): 9%
- activity at 0.3 µM [2, 5]: 136%
- activity at 0.3 µM [2, 6]: 80%
- activity at 3 µM [2, 5]: 119%
- activity at 3 µM [2, 6]: 83%
- activity at 30 µM [2, 5]: 107%
- activity at 30 µM [2, 6]: 138%
- activity at 300 µM ([2]; Homo sapiens, Cardiomyocyte, 300 µM, 2h, normalized to time-matched vehicle control): 97%
- Time of notable raise in the caspase-3/7 activity ([2]; highest test concentrations only): 12 to 18 h
- activity at 0.3 µM ([4]; 2h, read-out: BR): 100%
- activity at 0.3 µM ([4]; 2h, read-out: Base Imp): 87%
- activity at 0.3 µM ([4]; 24h, read-out: BR): 97%
- activity at 0.3 µM ([4]; 24h, read-out: Base Imp): 87%
- activity at 3 µM ([4]; 2h, read-out: BR): 97%
- activity at 3 µM ([4]; 2h, read-out: Base Imp): 86%
- activity at 3 µM ([4]; 24h, read-out: BR): 100%
- activity at 3 µM ([4]; 24h, read-out: Base Imp): 85%
- activity at 30 µM ([4]; 2h, read-out: BR): 96%
- activity at 30 µM ([4]; 2h, read-out: Base Imp): 82%
- activity at 30 µM ([4]; 24h, read-out: BR): 94%
- activity at 30 µM ([4]; 24h, read-out: Base Imp): 71%
- activity at 300 µM ([4]; 2h, read-out: BR): 70%
- activity at 300 µM ([4]; 2h, read-out: Base Imp): 65%
- activity at 300 µM ([4]; 24h, read-out: BR): 110%
- activity at 300 µM ([4]; 24h, read-out: Base Imp): 44%
- Effect on base impedance, in words [4]: concentration-and time-dependent decrease in base impedance; also recorded: concentration-dependent effects
- Inhibition of beating rate ([4]; highest test concentration, after 2 h of incubation): ~ 30%

Compound: O=C(NCc1cccc(O)c1)Nc1nc(-c2ccncc2)cs1 [RKI-1447]
- ATP ([1]; 0.01 µM, 2h): 98
- ATP ([1]; 0.01 µM, 24h): 102
- ATP ([1]; 0.1 µM, 2h): 99
- ATP ([1]; 0.1 µM, 24h): 99
- ATP ([1]; 1 µM, 2h): 101
- ATP ([1]; 1 µM, 24h): 98
- ATP ([1]; 10 µM, 2h): 104
- ATP ([1]; 10 µM, 24h): 102
- Caspase ([2]; 0.01 µM, 2h, normalized to time-matched vehicle control): 116
- Caspase ([2]; 0.01 µM, 24h, normalized to time-matched vehicle control): 115
- Caspase ([2]; 0.1 µM, 2h, normalized to time-matched vehicle control): 117
- Caspase ([2]; 0.1 µM, 24h, normalized to time-matched vehicle control): 115
- Caspase ([2]; 1 µM, 2h, normalized to time-matched vehicle control): 90
- Caspase ([2]; 1 µM, 24h, normalized to time-matched vehicle control): 110
- Caspase ([2]; 10 µM, 2h, normalized to time-matched vehicle control): 93
- Caspase ([2]; 10 µM, 24h, normalized to time-matched vehicle control): 129
- IC50 [3]: 14.5 nM
- BR ([4]; 0.01 µM, 2h): 107
- Base Imp ([4]; 0.01 µM, 2h): 87
- BR ([4]; 0.01 µM, 24h): 100
- Base Imp ([4]; 0.01 µM, 24h): 88
- BR ([4]; 0.1 µM, 2h): 106
- Base Imp ([4]; 0.1 µM, 2h): 86
- BR ([4]; 0.1 µM, 24h): 101
- Base Imp ([4]; 0.1 µM, 24h): 81
- BR ([4]; 1 µM, 2h): 110
- Base Imp ([4]; 1 µM, 2h): 80
- BR ([4]; 1 µM, 24h): 107
- Base Imp ([4]; 1 µM, 24h): 69
- BR ([4]; 10 µM, 2h): 112
- Base Imp ([4]; 10 µM, 2h): 68
- BR ([4]; 10 µM, 24h): 115
- Base Imp ([4]; 10 µM, 24h): 65
- Effect on base impedance, in words [4]: concentration-and time-dependent decrease in base impedance; also recorded: concentration-dependent effects
